From the supplement of paper PMC10307832

Experiments:
Test in all cases: relative viability (nuclei count vs DMSO), 5 days (fraction); higher = more cells survive
[1] = compound: O=C(O)c1ccc2c(c1)nc(Nc1cccc(Cl)c1)c1ccncc12 [Silmitasertib] + Cc1nc(Nc2ncc(C(=O)Nc3c(C)cccc3Cl)s2)cc(N2CCN(CCO)CC2)n1 [Dasatinib] (partner 0.075 µM)
Outline: (§1)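 Nuclei were stained with Hoechst during a one-step fixation (final 0.05% Triton X-100, 1% formaldehyde, 1 ug/ml Hoechst) carried out 5 days after dosing, then counted on 4× images. The cells, lung cancer lines in 1536-well plates, had been dosed by pin tool the day after seeding with one drug alone or a fixed anchor-drug dose plus five library-drug doses (not always all listed) in √10 steps. Relative viability is the nuclei count in treated wells divided by that in vehicle wells, and each value is the median of duplicate plates.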

Silmitasertib + AZD7762 = compound: O=C(O)c1ccc2c(c1)nc(Nc1cccc(Cl)c1)c1ccncc12 [Silmitasertib] + NC(=O)Nc1cc(-c2cccc(F)c2)sc1C(=O)N[C@H]1CCCNC1 [AZD7762] (partner 0.2 µM)
Outline: as §1

[2] = compound: O=C(O)c1ccc2c(c1)nc(Nc1cccc(Cl)c1)c1ccncc12 [Silmitasertib] + Cc1cc(Nc2cc(N3CCN(C)CC3)nc(Sc3ccc(NC(=O)C4CC4)cc3)n2)n[nH]1 [Tozasertib] (partner 0.1 µM)
Outline: as §1

[3] = compound: O=C(O)c1ccc2c(c1)nc(Nc1cccc(Cl)c1)c1ccncc12 [Silmitasertib] + N=C(N)NC(=N)NCCc1ccccc1 [Phenformin] (partner 250 µM)
Outline: as §1

[4] = compound: O=C(O)c1ccc2c(c1)nc(Nc1cccc(Cl)c1)c1ccncc12 [Silmitasertib] + Nc1nc2[nH]cc(CCc3ccc(C(=O)N[C@@H](CCC(=O)O)C(=O)O)cc3)c2c(=O)[nH]1 [Pemetrexed] (partner 0.2 µM)
Outline: as §1

Silmitasertib + OSI-027 = compound: O=C(O)c1ccc2c(c1)nc(Nc1cccc(Cl)c1)c1ccncc12 [Silmitasertib] + COc1cccc2cc(-c3nc([C@H]4CC[C@H](C(=O)O)CC4)n4ncnc(N)c34)[nH]c12 [OSI-027] (partner 0.5 µM)
Outline: as §1

[5] = compound: O=C(O)c1ccc2c(c1)nc(Nc1cccc(Cl)c1)c1ccncc12 [Silmitasertib] + CC(=O)c1c(C)c2cnc(Nc3ccc(N4CCNCC4)cn3)nc2n(C2CCCC2)c1=O [Palbociclib] (partner 0.5 µM)
Outline: as §1

[6] = compound: O=C(O)c1ccc2c(c1)nc(Nc1cccc(Cl)c1)c1ccncc12 [Silmitasertib] + CC(=O)Nc1cccc(-n2c(=O)n(C3CC3)c(=O)c3c(Nc4ccc(I)cc4F)n(C)c(=O)c(C)c32)c1 [Trametinib] (partner 0.02 µM)
Outline: as §1

[7] = compound: O=C(O)c1ccc2c(c1)nc(Nc1cccc(Cl)c1)c1ccncc12 [Silmitasertib] + CCNC(=O)c1noc(-c2cc(C(C)C)c(O)cc2O)c1-c1ccc(CN2CCOCC2)cc1 [Luminespib] (partner 0.01 µM)
Outline: as §1

Silmitasertib + Olaparib = compound: O=C(O)c1ccc2c(c1)nc(Nc1cccc(Cl)c1)c1ccncc12 [Silmitasertib] + O=C(c1cc(Cc2n[nH]c(=O)c3ccccc23)ccc1F)N1CCN(C(=O)C2CC2)CC1 [Olaparib] (partner 8 µM)
Outline: as §1

[8] = compound: O=C(O)c1ccc2c(c1)nc(Nc1cccc(Cl)c1)c1ccncc12 [Silmitasertib] + Nc1ncn([C@H]2C[C@H](O)[C@@H](CO)O2)c(=O)n1 [Decitabine] (partner 2 µM)
Outline: as §1

[9] = compound: O=C(O)c1ccc2c(c1)nc(Nc1cccc(Cl)c1)c1ccncc12 [Silmitasertib] + O=C(CCCCCCC(=O)Nc1ccccc1)NO [Vorinostat] (partner 1 µM)
Outline: as §1

Silmitasertib = compound: O=C(O)c1ccc2c(c1)nc(Nc1cccc(Cl)c1)c1ccncc12 [Silmitasertib]
Outline: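 A plate was accepted only when its control CV was below 25% and the cells had doubled at least once. Viability is defined from nuclear counts as treated wells divided by vehicle wells, with the median taken across plates. That median covers lung cancer cell lines grown in 1536-well plates, dosed by pinning at five √10-spaced library-drug concentrations, and counted in MetaXpress from 4× Hoechst images after 5 days.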

[10] = compound: O=C(O)c1ccc2c(c1)nc(Nc1cccc(Cl)c1)c1ccncc12 [Silmitasertib] + C[C@@H](Oc1cc(-c2cnn(C3CCNCC3)c2)cnc1N)c1c(Cl)ccc(F)c1Cl [Crizotinib] (partner 1 µM)
Outline: as §1

[11] = compound: O=C(O)c1ccc2c(c1)nc(Nc1cccc(Cl)c1)c1ccncc12 [Silmitasertib] + CS(=O)(=O)N1CCN(Cc2cc3nc(-c4cccc5[nH]ncc45)nc(N4CCOCC4)c3s2)CC1 [Pictilisib] (partner 1 µM)
Outline: as §1

[12] = compound: O=C(O)c1ccc2c(c1)nc(Nc1cccc(Cl)c1)c1ccncc12 [Silmitasertib] + CS(=O)(=O)CCNCc1ccc(-c2ccc3ncnc(Nc4ccc(OCc5cccc(F)c5)c(Cl)c4)c3c2)o1 [Lapatinib] (partner 2 µM)
Outline: as §1

[13] = compound: O=C(O)c1ccc2c(c1)nc(Nc1cccc(Cl)c1)c1ccncc12 [Silmitasertib] + CC(C)C[C@H](NC(=O)[C@H](Cc1ccccc1)NC(=O)c1cnccn1)B(O)O [Bortezomib] (partner 0.002 µM)
Outline: as §1

[14] = compound: O=C(O)c1ccc2c(c1)nc(Nc1cccc(Cl)c1)c1ccncc12 [Silmitasertib] + CC1(C)CCC(c2ccc(Cl)cc2)=C(CN2CCN(c3ccc(C(=O)NS(=O)(=O)c4ccc(N[C@H](CCN5CCOCC5)CSc5ccccc5)c(S(=O)(=O)C(F)(F)F)c4)cc3)CC2)C1 [Navitoclax] (partner 0.5 µM)
Outline: as §1

[15] = compound: O=C(O)c1ccc2c(c1)nc(Nc1cccc(Cl)c1)c1ccncc12 [Silmitasertib] + COc1cc2c(Oc3ccc(NC(=O)C4(C(=O)Nc5ccc(F)cc5)CC4)cc3F)ccnc2cc1OCCCN1CCOCC1 [Foretinib] (partner 0.25 µM)
Outline: as §1

[16] = compound: O=C(O)c1ccc2c(c1)nc(Nc1cccc(Cl)c1)c1ccncc12 [Silmitasertib] + Cc1nc(NC(=O)N2CCC[C@H]2C(N)=O)sc1-c1ccnc(C(C)(C)C(F)(F)F)c1 [Alpelisib] (partner 2 µM)
Outline: as §1

[17] = compound: O=C(O)c1ccc2c(c1)nc(Nc1cccc(Cl)c1)c1ccncc12 [Silmitasertib] + C[C@]1(O)C[C@@H](c2nc(-c3ccc4ccc(-c5ccccc5)nc4c3)c3c(N)nccn32)C1 [Linsitinib] (partner 1 µM)
Outline: as §1

## NCI-H522
[1]; first compound 0.04 µM
  relative viability: 0.876
[1]; first compound 0.4 µM
  relative viability: 0.785
[1]; first compound 1.265 µM
  relative viability: 0.788
[1]; first compound 4 µM
  relative viability: 0.849
Silmitasertib + AZD7762; first compound 0.04 µM
  relative viability: 0.89
Silmitasertib + AZD7762; first compound 0.4 µM
  relative viability: 0.841
Silmitasertib + AZD7762; first compound 1.265 µM
  relative viability: 0.822
Silmitasertib + AZD7762; first compound 4 µM
  relative viability: 0.819
[2]; first compound 0.04 µM
  relative viability: 0.611
[2]; first compound 0.4 µM
  relative viability: 0.464
[2]; first compound 1.265 µM
  relative viability: 0.541
[2]; first compound 4 µM
  relative viability: 0.574
[3]; first compound 0.04 µM
  relative viability: 0.669
[3]; first compound 0.4 µM
  relative viability: 0.554
[3]; first compound 1.265 µM
  relative viability: 0.626
[3]; first compound 4 µM
  relative viability: 0.678
[4]; first compound 0.04 µM
  relative viability: 0.986
[4]; first compound 0.4 µM
  relative viability: 0.846
[4]; first compound 1.265 µM
  relative viability: 1
[4]; first compound 4 µM
  relative viability: 1.15
Silmitasertib + OSI-027; first compound 0.04 µM
  relative viability: 0.739
Silmitasertib + OSI-027; first compound 0.4 µM
  relative viability: 0.762
Silmitasertib + OSI-027; first compound 1.265 µM
  relative viability: 0.684
Silmitasertib + OSI-027; first compound 4 µM
  relative viability: 0.67
[5]; first compound 0.04 µM
  relative viability: 1.02
[5]; first compound 0.4 µM
  relative viability: 0.801
[5]; first compound 1.265 µM
  relative viability: 0.903
[5]; first compound 4 µM
  relative viability: 1.04
[6]; first compound 0.04 µM
  relative viability: 0.715
[6]; first compound 0.4 µM
  relative viability: 0.68
[6]; first compound 1.265 µM
  relative viability: 0.814
[6]; first compound 4 µM
  relative viability: 0.817
[7]; first compound 0.04 µM
  relative viability: 1.71
[7]; first compound 0.4 µM
  relative viability: 0.859
[7]; first compound 1.265 µM
  relative viability: 0.938
[7]; first compound 4 µM
  relative viability: 1.24
Silmitasertib + Olaparib; first compound 0.04 µM
  relative viability: 0.633
Silmitasertib + Olaparib; first compound 0.4 µM
  relative viability: 0.58
Silmitasertib + Olaparib; first compound 1.265 µM
  relative viability: 0.774
Silmitasertib + Olaparib; first compound 4 µM
  relative viability: 0.592
[8]; first compound 0.04 µM
  relative viability: 0.653
[8]; first compound 0.4 µM
  relative viability: 0.62
[8]; first compound 1.265 µM
  relative viability: 0.69
[8]; first compound 4 µM
  relative viability: 0.655
[9]; first compound 0.04 µM
  relative viability: 0.99
[9]; first compound 0.4 µM
  relative viability: 0.715
[9]; first compound 1.265 µM
  relative viability: 0.929
[9]; first compound 4 µM
  relative viability: 0.863
Silmitasertib; 0.04 µM
  relative viability: 1.09
Silmitasertib; 0.4 µM
  relative viability: 0.788
Silmitasertib; 1.265 µM
  relative viability: 0.82
Silmitasertib; 4 µM
  relative viability: 0.694

## NCI-H1299
[10]; first compound 0.04 µM
  relative viability: 0.956
[10]; first compound 0.4 µM
  relative viability: 0.99
[10]; first compound 1.265 µM
  relative viability: 0.994
[10]; first compound 4 µM
  relative viability: 0.764
[11]; first compound 0.04 µM
  relative viability: 1.07
[11]; first compound 0.4 µM
  relative viability: 0.559
[11]; first compound 1.265 µM
  relative viability: 0.343
[11]; first compound 4 µM
  relative viability: 0.277
[12]; first compound 0.04 µM
  relative viability: 0.989
[12]; first compound 0.4 µM
  relative viability: 0.949
[12]; first compound 1.265 µM
  relative viability: 0.894
[12]; first compound 4 µM
  relative viability: 0.804
[13]; first compound 0.04 µM
  relative viability: 1.08
[13]; first compound 0.4 µM
  relative viability: 1.01
[13]; first compound 1.265 µM
  relative viability: 0.988
[13]; first compound 4 µM
  relative viability: 1.04
[14]; first compound 0.04 µM
  relative viability: 1.1
[14]; first compound 0.4 µM
  relative viability: 1.02
[14]; first compound 1.265 µM
  relative viability: 1.06
[14]; first compound 4 µM
  relative viability: 1.05
[15]; first compound 0.04 µM
  relative viability: 1.19
[15]; first compound 0.4 µM
  relative viability: 1.08
[15]; first compound 1.265 µM
  relative viability: 1.02
[15]; first compound 4 µM
  relative viability: 1.13
[16]; first compound 0.04 µM
  relative viability: 1.08
[16]; first compound 0.4 µM
  relative viability: 1.04
[16]; first compound 1.265 µM
  relative viability: 1.02
[16]; first compound 4 µM
  relative viability: 0.826
[17]; first compound 0.04 µM
  relative viability: 0.96
[17]; first compound 0.4 µM
  relative viability: 1.01
[17]; first compound 1.265 µM
  relative viability: 0.901
[17]; first compound 4 µM
  relative viability: 0.587
Silmitasertib + Olaparib; first compound 0.04 µM
  relative viability: 0.946
Silmitasertib + Olaparib; first compound 0.4 µM
  relative viability: 1.02
Silmitasertib + Olaparib; first compound 1.265 µM
  relative viability: 0.872
Silmitasertib + Olaparib; first compound 4 µM
  relative viability: 0.803
Silmitasertib; 0.04 µM
  relative viability: 1.05
Silmitasertib; 0.4 µM
  relative viability: 1.03
Silmitasertib; 1.265 µM
  relative viability: 0.945
Silmitasertib; 4 µM
  relative viability: 0.834
